These results are taken from US9332756B2, “Liquid formulations of carboxamide arthropodicides” (E I DU PONT DE NEMOURS AND COMPANY, priority 2006, dated 2016).

Holding throughout (type): in vivo
Data set [1] deals with beet armyworm (Spodoptera exigua). Put plainly: Test D: rainfastness for the control of beet armyworm on sprayed cotton plants. Conditions: Rain: Yes (about 95 mm simulated rain 2 h after spraying), four days after infestation. The source says:
For evaluating rainfastness (resistance to wash-off) for the control of beet armyworm (Spodoptera exigua), the test unit consisted of a cotton plant grown in a pot containing Redi-earth® medium. Test solutions were formulated as described in TEST A. When the plants were at the 4-6 true leaf growth stage, the plants were sprayed with the formulated test solution using a belt sprayer with nozzle positioned 19 cm above the plants and providing an application volume of 234 liters/ha. After spraying of the formulated test solutions, each test unit was allowed to dry for 2 h and then exposed to about 95 mm of simulated rain in a greenhouse. Plants were then allowed to dry, and leaves were cut and placed on agar in 16-cell plastic trays. One 3-day-old, laboratory reared beet armyworm larva was placed in each cell, and the cells were covered with a plastic lid. Two 16-cell trays were used per treatment. Trays were held in a growth chamber at 75% relative humidity, 16 h with light (as daytime) and 8 h in dark (as nighttime) at 25° C. Four days after infestation, each test unit was evaluated for larvae mortality, and the mean concentrations killing 50% of the population (mean LC50) were calculated and are listed in Table 4D.

For data set [2], the system named is silverleaf whitefly (Bemisia argentifolii Bellows & Perring). Briefly: Test B: control of silverleaf whitefly on sprayed cotton plants. Conditions: 144 h, read-out: % Mortality of Silverleaf Whitefly. The source says: For evaluating control of silverleaf whitefly (Bemisia argentifolii Bellows & Perring), the test unit consisted of a 14-21-day-old cotton plant with at least two true leaves, which was planted in Redi-earth® medium (Scotts Co.). The plants were placed in screened cages, where whitefly adults were introduced and allowed to lay eggs for approximately twenty-four hours. Only plants showing egg lay were used for testing. Before spraying the test solutions, the plants were checked again for egg hatch and crawler settlement. One leaf per plant was considered as one replication; four replications were used per treatment.
Test solutions were formulated as described in TEST A. A control solution consisting of 25% acetone in water was also prepared. After spraying, plants were allowed to dry in a ventilated enclosure and held for six days in a growth chamber at 50% relative humidity, 16 h with light (as daytime) at 28° C. and 8 h in dark (as nighttime) at 24° C. After removing all leaves from each test plant, evaluation was made by counting dead and live nymphs present on the underside of the leaves.

Data set [3] concerns western flower thrips (Frankliniella occidentalis Pergande). Briefly: Test A: control of western flower thrips on sprayed bean plants. Conditions: spray 500 L/ha, 7 days, immature thrips count. The method, then: For evaluating control of the western flower thrips (Frankliniella occidentalis Pergande) through contact and/or systemic means, each test unit consisted of a bean plant (var. Soleil) with at least two true leaves, which was planted in Redi-earth® medium (Scotts Co.). One plant was considered as one replication; four replications were used per treatment.
Technical material (unformulated) was dissolved in acetone and mixed with water containing 500 ppm of a blend of non-ionic surfactant with organosilicone (Kinetic®, Helena Chemical Co.). Formulated materials were diluted with water only. Rates of the test solutions were reported by the amount of active ingredient in ppm. Plants were sprayed using a TeeJet flat fan spray nozzle positioned 7.5 inches (19 cm) above the tallest plant. Spray flow rate was adjusted to 5.5 mL/sec for an equivalent of 500 L/ha. After spraying of the test solutions, the test units were placed in ventilated enclosures for at least one hour to dry. Thirty adult thrips were then added to each unit, and then the plants were placed in enclosed cages to prevent insect egress. […] Percent control was calculated by dividing the number of immature thrips in a test unit by the number of immature thrips in the untreated unit, subtracting the quotient from 1, and then multiplying the difference by 100%.

Data set [4] relates to green peach aphid (Myzus persicae). Put plainly: Test C: control of green peach aphid on sprayed radish plants. Conditions: 144 h, read-out: % Mortality of Green Peach Aphid. The method, then: For evaluating control of green peach aphid (Myzus persicae) through contact and/or systemic means, the test unit consisted of a 3-week old radish plant pre-infested with 30-40 aphids 24 h prior to treatment with test solutions. One plant was considered as one replication, four replications were used per treatment.
After spraying of the formulated test solutions, each test unit was allowed to dry, and the test units were held for 6 days in a growth chamber maintained at 19-21° C. and 50-70% relative humidity. Dead and live of aphids were counted in each test unit to determine percent mortality.

Turning to `CNC(=O)c1cc(C#N)cc(C)c1NC(=O)c1cc(Br)nn1-c1ncccc1Cl` [Technical Compound 1, 3-bromo-1-(3-chloro-2-pyridinyl)-N-[4-cyano-2-methyl-6-[(methylamino)carbonyl]phenyl]-1H-pyrazole-5-carboxamide], the “Mean LC50 of Beet Armyworm” value in data set [1] is recorded as “Very little activity”. Besides, the “Mean LC50 of Beet Armyworm” value in data set [1] (listed as Compound 1) was “very little activity”. Moreover, in data set [2], the mortality at 22 ppm was 90%, the mortality at 66 ppm was 91%, the mortality at 200 ppm amounted to 100% and the mortality at 600 ppm is 100%. Moreover, the “% Control of Western Flower Thrips” value in data set [3] (100 ppm a.i.) came out at 74%. Besides, the “% Control of Western Flower Thrips” value in data set [3] (200 ppm a.i.) stood at 72%. Moreover, in data set [4], the mortality at 50 ppm came out at 8%, the mortality at 100 ppm turned out to be 9%, the mortality at 200 ppm came to 19% and the mortality at 400 ppm worked out at 35%.

`CNC(=O)c1cc(Cl)cc(C)c1NC(=O)c1cc(Br)nn1-c1ncccc1Cl` [Technical Compound 2, 3-bromo-N-[4-chloro-2-methyl-6-[(methylamino)carbonyl]phenyl]-1-(3-chloro-2-pyridinyl)-1H-pyrazole-5-carboxamide]: the “Mean LC50 of Beet Armyworm” value was “Inactive” in data set [1] and “no detectable activity” in data set [1] (listed as Compound 2).

As usually defined, the mortality is the share of the test organisms that died.
